PubChem BioAssay (NCI)
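Protocol summary: plate cells (96-well), add compound at 5 concentrations, incubate 48 h, interpolate endpoints linearly. The concentration for full growth arrest is given as TGI.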

How the values were obtained:
Assay in all cases: NCI-60 cell line screen, 48 h
[1] = system: 786-0 renal
[2] = system: A498 renal
[3] = system: A549 NSCLC
[4] = system: ACHN renal
[5] = system: BT-549 breast
[6] = system: CAKI-1 renal
[7] = system: CCRF-CEM leukemia
[8] = system: COLO 205 colon
[9] = system: DU-145 prostate
[10] = system: EKVX NSCLC
[11] = system: HCC-2998 colon
[12] = system: HCT-116 colon
[13] = system: HCT-15 colon
[14] = system: HL-60(TB) leukemia
[15] = system: HOP-62 NSCLC
[16] = system: HOP-92 NSCLC
[17] = system: HS 578T breast
[18] = system: HT29 colon
[19] = system: IGROV1 ovarian
[20] = system: K-562 leukemia
[21] = system: KM12 colon
[22] = system: LOX IMVI melanoma
[23] = system: M14 melanoma
[24] = system: MALME-3M melanoma
[25] = system: MCF7 breast
[26] = system: MDA-MB-231 breast
[27] = system: MDA-MB-435
[28] = system: MDA-N
[29] = system: NCI-H226 lung
[30] = system: NCI-H23 lung
[31] = system: NCI-H460 lung
[32] = system: NCI-H522 lung
[33] = system: NCI/ADR-RES ovarian
[34] = system: OVCAR-3 ovarian
[35] = system: OVCAR-4 ovarian
[36] = system: OVCAR-5 ovarian
[37] = system: OVCAR-8 ovarian
[38] = system: PC-3 prostate
[39] = system: RPMI-8226 leukemia
[40] = system: RXF 393 renal
[41] = system: SF-268 CNS
[42] = system: SF-295 CNS
[43] = system: SF-539 CNS
[44] = system: SK-MEL-2 melanoma
[45] = system: SK-MEL-28 melanoma
[46] = system: SK-MEL-5 melanoma
[47] = system: SK-OV-3 ovarian
[48] = system: SN12C renal
[49] = system: SNB-19 CNS
[50] = system: SNB-75 CNS
[51] = system: SR leukemia
[52] = system: SW-620 colon
[53] = system: T-47D breast
[54] = system: TK-10 renal
[55] = system: U251 CNS
[56] = system: UACC-257 melanoma
[57] = system: UACC-62 melanoma
[58] = system: UO-31 renal
[59] = system: MOLT-4 leukemia

Compound `NC(=O)C(C(N)=O)=C(O)C(=O)/C=C(\O)c1ccccc1` has a TGI [1] greater than 100 µM, a TGI [2] greater than 100 µM and a TGI [3] greater than 100 µM. For the same compound, the TGI [4] was greater than 100 µM, the TGI [5] was greater than 100 µM and the TGI [6] was greater than 100 µM. For the same compound, the TGI [7] was 52.5 µM, the TGI [8] was greater than 100 µM and the TGI [9] was greater than 100 µM. The TGI [10] was greater than 100 µM, the TGI [11] was greater than 100 µM and the TGI [12] was greater than 100 µM. For the same compound, the TGI [13] was greater than 100 µM, the TGI [14] was 58.8 µM and the TGI [15] was greater than 100 µM. For the same compound, the TGI [16] was greater than 100 µM, the TGI [17] was greater than 100 µM and the TGI [18] was greater than 100 µM. For the same compound, the TGI [19] was greater than 100 µM, the TGI [20] was 29.9 µM and the TGI [21] was greater than 100 µM. For the same compound, the TGI [22] was greater than 100 µM, the TGI [23] was greater than 100 µM and the TGI [24] was greater than 100 µM. For the same compound, the TGI [25] was greater than 100 µM, the TGI [26] was greater than 100 µM and the TGI [27] was greater than 100 µM. For the same compound, the TGI [28] was greater than 100 µM, the TGI [29] was greater than 100 µM and the TGI [30] was greater than 100 µM. For the same compound, the TGI [31] was greater than 100 µM, the TGI [32] was 36.2 µM and the TGI [33] was greater than 100 µM. The TGI [34] was greater than 100 µM, the TGI [35] was greater than 100 µM and the TGI [36] was greater than 100 µM. The TGI [37] was greater than 100 µM, the TGI [38] was greater than 100 µM and the TGI [39] was 31.7 µM. For the same compound, the TGI [40] was greater than 100 µM, the TGI [41] was greater than 100 µM and the TGI [42] was greater than 100 µM. The TGI [43] was greater than 100 µM, the TGI [44] was greater than 100 µM and the TGI [45] was greater than 100 µM. The TGI [46] was greater than 100 µM, the TGI [47] was greater than 100 µM and the TGI [48] was greater than 100 µM. It also gave a TGI [49] greater than 100 µM, a TGI [50] greater than 100 µM and a TGI [51] of 13.9 µM. It also gave a TGI [52] greater than 100 µM, a TGI [53] greater than 100 µM and a TGI [54] greater than 100 µM. It also gave a TGI [55] greater than 100 µM, a TGI [56] greater than 100 µM and a TGI [57] greater than 100 µM. The TGI [58] was greater than 100 µM.

Work on `Cc1c(N=Nc2ccc(Cl)cc2)c(-c2ccccc2)n(C2OC(CO)C(O)C(O)C2O)c(=S)c1C#N` (stereo not drawn) yielded a TGI [1] of 36.7 µM, a TGI [2] of 21.5 µM and a TGI [3] of 35.3 µM. It also gave a TGI [4] of 31.1 µM, a TGI [5] of 29.5 µM and a TGI [6] of 34 µM. It also gave a TGI [7] of 87.5 µM, a TGI [8] of 37.7 µM and a TGI [9] of 39.4 µM. The TGI [12] was 28.2 µM, the TGI [13] was 33.9 µM and the TGI [14] was greater than 100 µM. The TGI [15] was 34.4 µM, the TGI [16] was 28.8 µM and the TGI [17] was 51.6 µM. The TGI [18] was 33.7 µM, the TGI [19] was 29.5 µM and the TGI [20] was 41.3 µM. The TGI [21] was 35.4 µM, the TGI [22] was 32.7 µM and the TGI [23] was 31.2 µM. For the same compound, the TGI [24] was 46.4 µM, the TGI [25] was 34.5 µM and the TGI [26] was 39.2 µM. For the same compound, the TGI [27] was 22.2 µM, the TGI [28] was 35.9 µM and the TGI [59] was 33.2 µM. The TGI [30] was 22.5 µM, the TGI [31] was 51.7 µM and the TGI [33] was 32.8 µM. The TGI [34] was 32.5 µM, the TGI [35] was 36 µM and the TGI [36] was 33.7 µM. The TGI [38] was 22.4 µM, the TGI [39] was greater than 100 µM and the TGI [40] was 28.7 µM. It also gave a TGI [41] of 44.8 µM, a TGI [42] of 73.9 µM and a TGI [43] of 41 µM. The TGI [44] was 37.5 µM, the TGI [45] was 28.7 µM and the TGI [46] was 25.8 µM. For the same compound, the TGI [47] was 30.6 µM, the TGI [48] was 32.5 µM and the TGI [49] was 25.2 µM. It also gave a TGI [50] of 32.7 µM, a TGI [51] greater than 100 µM and a TGI [52] of 32.9 µM. For the same compound, the TGI [53] was 44.2 µM, the TGI [54] was 44.4 µM and the TGI [55] was 25.3 µM. It also gave a TGI [56] of 54 µM, a TGI [57] of 26.1 µM and a TGI [58] of 34.2 µM.

For `CC(=O)c1c(C)n([O-])c2cc(Cl)c(Cl)cc2[n+]1=O`, the TGI [1] was greater than 100 µM, the TGI [2] was 70.4 µM and the TGI [3] was 56.2 µM. It also gave a TGI [4] of 67.7 µM, a TGI [5] greater than 100 µM and a TGI [6] of 58.1 µM. The TGI [7] was 61.5 µM, the TGI [8] was 30.1 µM and the TGI [9] was greater than 100 µM. It also gave a TGI [10] greater than 100 µM, a TGI [11] of 57.8 µM and a TGI [12] greater than 100 µM. It also gave a TGI [13] greater than 100 µM, a TGI [14] of 39.6 µM and a TGI [15] greater than 100 µM. For the same compound, the TGI [17] was 74 µM, the TGI [18] was 90.9 µM and the TGI [19] was 24.4 µM. For the same compound, the TGI [20] was 95.4 µM, the TGI [21] was 33.5 µM and the TGI [22] was 46.4 µM. For the same compound, the TGI [23] was greater than 100 µM, the TGI [24] was 26.4 µM and the TGI [25] was greater than 100 µM. It also gave a TGI [26] of 62.7 µM, a TGI [27] of 69.7 µM and a TGI [28] greater than 100 µM. It also gave a TGI [59] greater than 100 µM, a TGI [30] greater than 100 µM and a TGI [31] of 56 µM. It also gave a TGI [32] of 27.9 µM, a TGI [33] of 75.1 µM and a TGI [34] of 88.5 µM. The TGI [35] was 63.8 µM, the TGI [36] was greater than 100 µM and the TGI [37] was 89.9 µM. It also gave a TGI [38] greater than 100 µM, a TGI [39] of 25.4 µM and a TGI [40] greater than 100 µM. The TGI [41] was greater than 100 µM, the TGI [42] was greater than 100 µM and the TGI [43] was 72.5 µM. For the same compound, the TGI [44] was greater than 100 µM, the TGI [45] was greater than 100 µM and the TGI [46] was 26.4 µM. It also gave a TGI [47] of 54.4 µM, a TGI [48] of 86.2 µM and a TGI [49] greater than 100 µM. It also gave a TGI [51] of 62.2 µM, a TGI [52] greater than 100 µM and a TGI [53] greater than 100 µM. For the same compound, the TGI [54] was 71.3 µM, the TGI [55] was greater than 100 µM and the TGI [56] was 57.4 µM. It also gave a TGI [57] of 50 µM and a TGI [58] of 32.9 µM.
